{"source": "patent US9416347B2", "about": "“Method of treating bacterial contamination in a microalgae culture with pH shock” (Heliae Development LLC, priority 2014, dated 2016)", "key": {"Chlorella sp. [1]": {"tested_on": "Chlorella sp.", "details": "culture at 1,029 mg/L acetate, pH 3.5 for 15 minutes, returned to 7.5 with 2 M NaOH", "protocol": "The pH treated culture samples were maintained at the culture pH of 3.5 for 15 minutes before returning the culture pH to 7.5 by adding 2 M NaOH.\nThe pH treatment was applied directly into the culture, without previous concentration or subsequent dilution through inoculation into a fresh media. All cultures were incubated with shaking at 100 rpm in 5% carbon dioxide and 25° C. […] 100 μM photon/m^2 s of light was also provided to create mixotrophic growth conditions. The cultures were monitored for 4 days (96 hours with dry weight samples taken at 0, 48, and 96 hours). Residual acetate analyses were carried at the end of the experiment."}, "[2]": {"tested_on": "Vampirovibrio chlorellavorus", "details": "culture receiving the second pH treatment, 85% before treatment", "description": "(§1) Some bacteria in the microalgae culture may attach to the cell wall of the microalgae, eventually lysing the cell wall of the microalgae and killing the microalgae. […] An example of bacteria known to attach to microalgae is Vampirovibrio chlorellavorus.\nSamples were taken every two days to determine the cell dry weight (g/L) of the cultures."}, "Chlorella": {"tested_on": "Chlorella", "details": "pH 3.5 with HCl (37%) for 15 minutes, open raceway pond"}, "[3]": {"tested_on": "bacteria attached to Chlorella", "description": "as §1"}, "Chlorella sp. [4]": {"tested_on": "Chlorella sp.", "details": "for cell dry weight: second pH treatment 7.5 to 3.5 with HCl (18%) for 15 minutes, raised with 4 M NaOH"}, "[5]": {"tested_on": "live bacteria in Chlorella culture", "details": "for bacteria count: pH 3.5 with HCl (37%) for 15 minutes, open raceway pond"}, "Chlorella sp. [6]": {"tested_on": "Chlorella sp.", "details": "pH lowered from about 7.5 to 3.5 for 15 minutes, raised back with 5M NaOH", "protocol": "The first 400 ml culture was maintained as an untreated control at a pH of about 7.5. […] The pH treatments were applied directly to the cultures, without previous concentration of the microalgae or subsequent dilution through inoculation into fresh culture media. All cultures were incubated with shaking at 100 rpm in 5% carbon dioxide and 25° C. […] 100 μM photon/m^2 s of light was also provided to create mixotrophic growth conditions. The cultures were monitored for 4 days (96 hours with dry weight samples taken at 0, 48, and 96 hours). Live bacteria count samples were taken at 0 and 48 hours, and quantified using aerobic colony forming units (CFU) obtained from plate counts utilizing Petrifilm available from 3M (St. Paul, Minn.). A bacteria to microalgae ratio was also quantified using guava flow cytometry."}, "Cytophaga sp.": {"tested_on": "Cytophaga sp.", "details": "pH treated versus untreated culture, over the life of the cultures"}}, "note": "Structures can show the parent of a compound that is named as a salt. Where two headings read alike, the source gives them in different places.", "data": [{"smiles": "Cl", "note": "[HCl, hydrochloric acid]", "values": [{"measurement": "Cell Dry Weight", "setting": "Chlorella sp. [1]; 0 h", "value": "0.89 ± 0.01", "unit": "g/L"}, {"measurement": "Cell Dry Weight", "setting": "Chlorella sp. [1]; 48 h", "value": "1.88 ± 0.04", "unit": "g/L"}, {"measurement": "Cell Dry Weight", "setting": "Chlorella sp. [1]; 96 h", "value": "2.58 ± 0.01", "unit": "g/L"}, {"measurement": "bacteria attachment level", "setting": "[2]; day 4 (96 h)", "value": "about 4.5%"}, {"measurement": "bacteria attachment", "setting": "[2]; within 48 hours", "value": 0, "unit": "%"}, {"measurement": "cell dry weight", "setting": "Chlorella; raised to 8.5 with NaOH, 0 h", "value": 1.2, "unit": "g/L"}, {"measurement": "cell dry weight", "setting": "Chlorella; 11 h", "value": 1.4, "unit": "g/L"}, {"measurement": "cell dry weight", "setting": "Chlorella; 24 h", "value": 1.6, "unit": "g/L"}, {"measurement": "cell dry weight", "setting": "Chlorella; 35 h", "value": 2.2, "unit": "g/L"}, {"measurement": "cell dry weight", "setting": "Chlorella; 48 h", "value": 2.5, "unit": "g/L"}, {"measurement": "cell dry weight", "setting": "Chlorella; 59 h", "value": 3.5, "unit": "g/L"}, {"measurement": "cell dry weight", "setting": "Chlorella; 72 h", "value": 4.0, "unit": "g/L"}, {"measurement": "cell dry weight", "setting": "Chlorella; 83 h", "value": 4.8, "unit": "g/L"}, {"measurement": "cell dry weight", "setting": "Chlorella; 96 h", "value": 5.1, "unit": "g/L"}, {"measurement": "cell dry weight", "setting": "Chlorella; 107 h", "value": 5.4, "unit": "g/L"}, {"measurement": "cell dry weight", "setting": "Chlorella; 120 h", "value": 5.7, "unit": "g/L"}, {"measurement": "cell dry weight", "setting": "Chlorella; 131 h", "value": 6.1, "unit": "g/L"}, {"measurement": "cell dry weight", "setting": "Chlorella; 144 h", "value": 6.1, "unit": "g/L"}, {"measurement": "cell dry weight", "setting": "Chlorella; 155 h (after partial harvest)", "value": 1.9, "unit": "g/L"}, {"measurement": "cell dry weight", "setting": "Chlorella; 168 h", "value": 1.8, "unit": "g/L"}, {"measurement": "time bacterial attachment remained below 10%", "setting": "[3]; pH treated culture", "value": "over 100 hours"}, {"measurement": "bacterial attachment in the pH treated culture", "setting": "[3]; within 12 hours, drop from about 50%", "value": "under 10%"}, {"measurement": "productive life of culture", "setting": "Chlorella sp. [4]; culture that received one pH treatment", "value": "approximately 14 days"}, {"measurement": "productive life of culture (lasted until day, then discarded)", "setting": "Chlorella sp. [4]; culture that received two pH treatments", "value": "≥ 20", "unit": "days"}, {"measurement": "cell dry weight", "setting": "Chlorella sp. [4]; 0 h", "value": "1.05 (g/L)"}, {"measurement": "cell dry weight", "setting": "Chlorella sp. [4]; 48 h", "value": 2.79, "unit": "g/L"}, {"measurement": "cell dry weight", "setting": "Chlorella sp. [4]; 96 h", "value": 3.87, "unit": "g/L"}, {"measurement": "cell dry weight", "setting": "Chlorella sp. [4]; 144 h", "value": 4.79, "unit": "g/L"}, {"measurement": "total bacteria live count lower than the untreated culture", "setting": "[5]; immediately following treatment", "value": "approximately 2 logs"}, {"measurement": "bacteria count", "setting": "[5]; 0 h", "value": "4.00E+04", "unit": "CFU"}, {"measurement": "bacteria count", "setting": "[5]; 24 h", "value": "1.50E+07", "unit": "CFU"}, {"measurement": "bacteria count", "setting": "[5]; 48 h", "value": "1.20E+08", "unit": "CFU"}, {"measurement": "bacteria count", "setting": "[5]; 72 h", "value": "2.20E+08", "unit": "CFU"}, {"measurement": "bacteria count", "setting": "[5]; 96 h", "value": "1.30E+08", "unit": "CFU"}, {"measurement": "bacteria count", "setting": "[5]; 120 h", "value": "1.20E+08", "unit": "CFU"}, {"measurement": "bacteria count", "setting": "[5]; 144 h", "value": "1.50E+08", "unit": "CFU"}, {"measurement": "cell dry weight", "setting": "Chlorella sp. [6]; 0 h", "value": "0.80 ± 0.03", "unit": "g/L"}, {"measurement": "cell dry weight", "setting": "Chlorella sp. [6]; 48 h", "value": "2.54 ± 0.00", "unit": "g/L"}, {"measurement": "cell dry weight", "setting": "Chlorella sp. [6]; 96 h", "value": "3.78 ± 0.00", "unit": "g/L"}, {"measurement": "Cytophaga sp. detection by qPCR", "setting": "Cytophaga sp.", "value": "detected in the untreated culture only"}]}]}
